Measurements from ChEMBL document CHEMBL1201862, “PubChem BioAssay data set” (2004).
Calls of active or inactive are those of the source.

Assays:
[1] = target: Wee1-like protein kinase (Homo sapiens, UniProt P30291); test: HeLa cell cycle G2/M accumulation – FACS, mechanism study for Wee1 degradation inhibitor project, late-stage follow-up, panel member Wee1 Degradation (AID 2088)
[2] = target: G2/mitotic-specific cyclin-B1 (Homo sapiens, UniProt P14635); test: HeLa cell cycle G2/M accumulation – FACS, mechanism study for Wee1 degradation inhibitor project, late-stage follow-up, panel member Cyclin B Degradation (AID 2088)
[3] = tested on: Vero; test: cells; assay type: functional, cell-based; details: Chlorocebus sabaeus
[4] = viability of PTEN-deleted HCT116 cells – cell-based, HCT116 PTEN knockout, dose response (AID 1047); assay type: functional;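 also: HCT116 colon tumor cells with PTEN knocked out; cells exposed to compound for 60 hours before readout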
[5] = fluconazole-exposed Candida albicans growth modulators – fluorescence, retest, confirmation (AID 2467); assay type: functional, cell-based
[6] = target: T1, Neuropeptide Y receptor type 1 (Homo sapiens, UniProt P25929); assay type: functional;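 also: HEK293 cells with a CNG channel challenged with NPY then isoproterenol; potency as antagonist that reverses NPY suppression of cAMP signal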
T1 sequence (P25929 whole entry): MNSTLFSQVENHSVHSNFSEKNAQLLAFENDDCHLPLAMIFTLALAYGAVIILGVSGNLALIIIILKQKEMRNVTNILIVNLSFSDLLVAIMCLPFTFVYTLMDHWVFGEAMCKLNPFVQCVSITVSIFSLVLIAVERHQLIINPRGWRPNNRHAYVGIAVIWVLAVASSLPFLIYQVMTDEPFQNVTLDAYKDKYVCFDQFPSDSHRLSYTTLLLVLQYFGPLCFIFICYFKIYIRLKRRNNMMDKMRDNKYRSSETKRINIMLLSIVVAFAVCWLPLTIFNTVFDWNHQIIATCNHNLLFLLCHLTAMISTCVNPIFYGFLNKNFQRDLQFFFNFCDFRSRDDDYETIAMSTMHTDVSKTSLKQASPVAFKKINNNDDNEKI

[7] = viability of HCT116 lacking mutant beta-catenin – cell-based, human colon tumor, dose response (AID 1045); assay type: functional;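 also: HCT116 colon tumor cells with beta catenin knocked out; cells exposed to compound for 60 hours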
[8] = NIH-3T3 fibroblast cytotoxicity, dose response, cytotoxicity control, cell-based, fluorescence, Alamar Blue, secondary assay (AID 2327); assay type: functional;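 also: NIH-3T3 mouse fibroblasts cultured with fluconazole at 8 µg/mL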
[9] = tested on: Vero; test: cells; assay type: functional; details: Chlorocebus sabaeus
[10] = target: T2, Neuropeptide Y receptor type 2 (Homo sapiens, UniProt P49146); assay type: functional, cell-based;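 also: HEK293 cells expressing the receptor and a CNG channel; stimulus was NPY near EC95 followed by isoproterenol to raise cAMP; antagonist potency measured as restoring cAMP signal that NPY suppresses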
T2 sequence (P49146 whole entry): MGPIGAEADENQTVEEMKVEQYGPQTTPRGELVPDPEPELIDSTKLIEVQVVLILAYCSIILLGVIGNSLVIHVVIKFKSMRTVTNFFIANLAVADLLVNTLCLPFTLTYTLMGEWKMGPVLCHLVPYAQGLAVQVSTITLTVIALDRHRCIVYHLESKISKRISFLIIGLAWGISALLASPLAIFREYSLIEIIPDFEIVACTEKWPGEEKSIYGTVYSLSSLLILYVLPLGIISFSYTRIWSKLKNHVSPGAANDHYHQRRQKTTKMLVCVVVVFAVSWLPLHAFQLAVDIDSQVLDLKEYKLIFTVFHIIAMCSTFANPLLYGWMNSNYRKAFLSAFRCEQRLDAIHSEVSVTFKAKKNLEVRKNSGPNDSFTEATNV

[11] = target: Neurotensin receptor type 1 (Homo sapiens, UniProt P30989); assay type: functional;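 also: Image-based confirmatory dose-response assay measuring agonist activity at NTR1; NTR1-expressing U2OS osteosarcoma cells imaged for beta-arrestin GFP spot formation; agonist potency where compounds increase beta-arrestin recruitment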
[12] = target: Cyclin-dependent kinase 5/CDK5 activator 1 (Homo sapiens, UniProt Q00535); test: blockade of human CDK5 activity – biochemical, cherry-picked samples, set 2, dose response (AID 504545)
[13] = target: Large T antigen (Simian virus 40, UniProt P03070); assay type: functional, Betapolyomavirus macacae;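 also: Confirmatory-stage PubChem screen for compounds that inhibit SV40 T antigen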
[14] = target: T3, Apoptotic protease-activating factor 1 (Homo sapiens, UniProt O14727); assay type: functional
T3 sequence (O14727 whole entry): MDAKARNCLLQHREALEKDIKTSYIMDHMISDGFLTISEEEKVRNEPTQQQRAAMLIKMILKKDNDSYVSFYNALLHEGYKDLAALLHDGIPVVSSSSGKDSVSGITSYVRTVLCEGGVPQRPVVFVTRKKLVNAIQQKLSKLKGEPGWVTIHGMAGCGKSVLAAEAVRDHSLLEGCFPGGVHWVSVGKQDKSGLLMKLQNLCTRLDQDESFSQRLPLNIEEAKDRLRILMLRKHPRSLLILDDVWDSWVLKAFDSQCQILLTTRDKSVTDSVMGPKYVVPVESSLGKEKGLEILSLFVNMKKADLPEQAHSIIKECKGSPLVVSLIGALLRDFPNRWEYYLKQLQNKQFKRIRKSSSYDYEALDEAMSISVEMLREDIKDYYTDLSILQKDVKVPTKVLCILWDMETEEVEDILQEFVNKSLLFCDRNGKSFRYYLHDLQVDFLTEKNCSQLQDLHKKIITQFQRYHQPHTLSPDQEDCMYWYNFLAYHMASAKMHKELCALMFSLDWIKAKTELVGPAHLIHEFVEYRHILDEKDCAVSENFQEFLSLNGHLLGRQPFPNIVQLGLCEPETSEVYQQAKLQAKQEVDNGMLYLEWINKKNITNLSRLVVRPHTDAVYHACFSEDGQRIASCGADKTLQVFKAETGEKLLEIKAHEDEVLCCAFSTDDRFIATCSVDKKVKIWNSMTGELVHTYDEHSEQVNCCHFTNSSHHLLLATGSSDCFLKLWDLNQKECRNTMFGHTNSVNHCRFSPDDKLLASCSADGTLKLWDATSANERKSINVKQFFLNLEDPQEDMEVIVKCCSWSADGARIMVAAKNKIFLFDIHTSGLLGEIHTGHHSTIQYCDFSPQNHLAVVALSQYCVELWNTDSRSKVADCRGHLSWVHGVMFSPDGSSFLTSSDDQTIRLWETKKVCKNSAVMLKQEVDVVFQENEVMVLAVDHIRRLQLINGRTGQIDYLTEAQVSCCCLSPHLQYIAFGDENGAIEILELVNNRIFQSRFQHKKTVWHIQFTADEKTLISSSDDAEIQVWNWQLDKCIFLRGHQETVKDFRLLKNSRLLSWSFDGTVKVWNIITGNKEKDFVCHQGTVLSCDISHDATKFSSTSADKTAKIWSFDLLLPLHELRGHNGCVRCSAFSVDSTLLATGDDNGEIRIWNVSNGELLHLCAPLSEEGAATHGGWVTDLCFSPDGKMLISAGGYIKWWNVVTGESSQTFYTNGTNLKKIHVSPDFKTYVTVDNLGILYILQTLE

[15] = viability loss in HeLa cells – cytotoxicity control for MgcRacGAP inhibitor project, dose response (AID 624300); assay type: functional
[16] = microbe, parasite or virus in culture; assay type: functional; details: Mycobacterium tuberculosis
[17] = target: Cytochrome P450 2D6 (Homo sapiens, UniProt P10635);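 also: CYP2D6 member of a cytochrome P450 panel assay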
Sequence of Cytochrome P450 2D6 (P10635 whole entry): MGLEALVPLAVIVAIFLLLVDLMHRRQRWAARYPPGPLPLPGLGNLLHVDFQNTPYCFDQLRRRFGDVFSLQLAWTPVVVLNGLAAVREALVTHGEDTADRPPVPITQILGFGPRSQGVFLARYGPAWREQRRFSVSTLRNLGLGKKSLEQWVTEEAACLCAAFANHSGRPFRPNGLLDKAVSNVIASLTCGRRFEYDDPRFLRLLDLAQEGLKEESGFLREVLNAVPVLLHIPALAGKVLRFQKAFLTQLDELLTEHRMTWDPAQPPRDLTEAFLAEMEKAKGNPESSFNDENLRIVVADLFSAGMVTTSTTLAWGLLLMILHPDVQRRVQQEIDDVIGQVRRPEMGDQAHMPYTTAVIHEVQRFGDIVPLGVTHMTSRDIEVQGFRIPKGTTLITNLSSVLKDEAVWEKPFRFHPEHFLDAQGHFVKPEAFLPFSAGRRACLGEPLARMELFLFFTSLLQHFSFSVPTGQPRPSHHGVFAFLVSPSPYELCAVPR

[18] = target: T4, Hexokinase HKDC1 (Homo sapiens, UniProt Q2TB90); test: inhibition of HKDC1 glucose phosphorylation – biochemical, W721R variant, dose response (AID 504729); assay type: functional
T4 sequence (Q2TB90 whole entry): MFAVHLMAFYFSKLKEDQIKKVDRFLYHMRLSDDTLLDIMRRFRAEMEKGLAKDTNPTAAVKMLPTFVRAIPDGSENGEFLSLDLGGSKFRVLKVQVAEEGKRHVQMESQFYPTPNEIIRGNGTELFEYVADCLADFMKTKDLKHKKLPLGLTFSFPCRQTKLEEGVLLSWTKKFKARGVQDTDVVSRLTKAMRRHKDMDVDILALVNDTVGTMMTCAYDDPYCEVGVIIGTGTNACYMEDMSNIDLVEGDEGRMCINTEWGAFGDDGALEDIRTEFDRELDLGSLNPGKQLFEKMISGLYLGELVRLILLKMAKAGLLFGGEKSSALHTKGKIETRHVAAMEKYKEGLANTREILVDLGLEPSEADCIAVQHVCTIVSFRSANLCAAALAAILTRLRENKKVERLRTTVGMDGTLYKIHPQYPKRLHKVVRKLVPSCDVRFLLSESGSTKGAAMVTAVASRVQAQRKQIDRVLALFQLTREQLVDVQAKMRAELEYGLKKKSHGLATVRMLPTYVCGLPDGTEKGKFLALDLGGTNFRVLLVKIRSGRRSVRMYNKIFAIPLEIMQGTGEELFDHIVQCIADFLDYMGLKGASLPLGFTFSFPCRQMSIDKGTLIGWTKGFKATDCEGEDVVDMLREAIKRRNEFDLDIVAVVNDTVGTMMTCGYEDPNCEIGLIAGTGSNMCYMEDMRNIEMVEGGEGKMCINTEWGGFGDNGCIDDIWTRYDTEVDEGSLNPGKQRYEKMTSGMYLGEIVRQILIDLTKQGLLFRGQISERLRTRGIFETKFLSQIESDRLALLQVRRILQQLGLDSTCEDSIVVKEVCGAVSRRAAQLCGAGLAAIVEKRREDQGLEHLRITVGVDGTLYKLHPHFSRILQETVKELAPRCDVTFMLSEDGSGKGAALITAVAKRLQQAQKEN

[19] = target: T5, Rac GTPase-activating protein 1 (Homo sapiens, UniProt Q9H0H5); test: blockers of MgcRacGAP-driven Rac1 GTP hydrolysis – biochemical, ADP Hunter fluorescence, primary and confirmatory, confirmation (AID 624330); assay type: functional
T5 sequence (Q9H0H5 whole entry): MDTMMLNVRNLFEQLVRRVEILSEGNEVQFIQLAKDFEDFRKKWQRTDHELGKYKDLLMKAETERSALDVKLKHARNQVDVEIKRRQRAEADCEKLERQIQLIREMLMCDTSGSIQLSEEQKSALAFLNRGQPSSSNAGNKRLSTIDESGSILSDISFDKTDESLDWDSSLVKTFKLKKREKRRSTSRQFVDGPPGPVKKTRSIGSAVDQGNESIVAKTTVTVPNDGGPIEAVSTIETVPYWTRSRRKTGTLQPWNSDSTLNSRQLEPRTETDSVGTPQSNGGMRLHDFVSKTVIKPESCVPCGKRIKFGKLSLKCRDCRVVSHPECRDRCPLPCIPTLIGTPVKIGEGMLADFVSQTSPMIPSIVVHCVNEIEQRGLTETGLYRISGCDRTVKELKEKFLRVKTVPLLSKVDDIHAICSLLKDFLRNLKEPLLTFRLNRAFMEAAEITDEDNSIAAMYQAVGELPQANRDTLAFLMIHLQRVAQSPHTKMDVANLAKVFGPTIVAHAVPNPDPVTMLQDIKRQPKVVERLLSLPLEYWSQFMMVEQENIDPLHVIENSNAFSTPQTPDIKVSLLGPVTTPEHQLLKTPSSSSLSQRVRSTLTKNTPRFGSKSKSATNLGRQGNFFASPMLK

[20] = target: Phospholipase A2 (Homo sapiens, UniProt P04054); assay type: functional;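 also: confirmatory dose-response counterscreen on phospholipase A2, testing hits that came from an ultra-high-throughput screen for ATG4B inhibitors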
Sequence of Phospholipase A2 (P04054 whole entry): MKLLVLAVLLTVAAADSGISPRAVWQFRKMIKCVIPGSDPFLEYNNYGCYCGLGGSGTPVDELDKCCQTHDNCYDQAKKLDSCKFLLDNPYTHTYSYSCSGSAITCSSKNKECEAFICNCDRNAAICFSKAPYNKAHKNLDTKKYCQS

[21] = target: Beta Lactamase (Pseudomonas aeruginosa, UniProt Q932Y6); test: BLA reporter interference, concentration series – BLA reporter cells, FRET fluorescence, artefact control for TLR9-MyD88 binding inhibitor project, dose response (AID 588341); assay type: cell-based;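 also: cell based assay in CHO-K1 cells stably expressing beta-lactamase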
[22] = target: T6, Cysteine protease ATG4B (Homo sapiens, UniProt Q9Y4P1); assay type: functional;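 also: Fluorescence-based dose-response confirmation assay measuring inhibition of ATG4B activity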
T6 sequence (Q9Y4P1 whole entry): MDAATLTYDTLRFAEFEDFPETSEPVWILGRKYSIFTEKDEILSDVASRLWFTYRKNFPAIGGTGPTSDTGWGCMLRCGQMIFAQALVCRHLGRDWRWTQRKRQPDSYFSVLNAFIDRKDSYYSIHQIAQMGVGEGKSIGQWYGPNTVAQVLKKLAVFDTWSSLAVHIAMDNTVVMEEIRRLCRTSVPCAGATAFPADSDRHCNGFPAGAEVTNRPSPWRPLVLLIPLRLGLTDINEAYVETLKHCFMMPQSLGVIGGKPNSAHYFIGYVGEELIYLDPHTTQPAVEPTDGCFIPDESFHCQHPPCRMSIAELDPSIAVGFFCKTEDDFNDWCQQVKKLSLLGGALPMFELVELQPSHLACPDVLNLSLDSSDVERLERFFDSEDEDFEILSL

[23] = tested on: CHO; test: CHO cell viability loss, potency – luminescence, cytotoxicity control for TLR9-MyD88 binding inhibitor project, dose response (AID 588339); assay type: functional, cell-based, hamster; details: Cricetulus griseus;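 also: CHO cells stably coexpressing TLR9 and MyD88 fusions from primary screen; compound exposure lasted 48 hours before viability readout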
[24] = target: T7, Voltage-dependent T-type calcium channel subunit alpha-1H (Homo sapiens, UniProt O95180); test: Inhibitors of T-Type Calcium Channels. [Related pubchem assays (depositor defined):AID449739, AID463087, AID489005, AID493041, AID504579, AID504584, AID504619, AID504628]; assay type: functional
T7 sequence (O95180 whole entry): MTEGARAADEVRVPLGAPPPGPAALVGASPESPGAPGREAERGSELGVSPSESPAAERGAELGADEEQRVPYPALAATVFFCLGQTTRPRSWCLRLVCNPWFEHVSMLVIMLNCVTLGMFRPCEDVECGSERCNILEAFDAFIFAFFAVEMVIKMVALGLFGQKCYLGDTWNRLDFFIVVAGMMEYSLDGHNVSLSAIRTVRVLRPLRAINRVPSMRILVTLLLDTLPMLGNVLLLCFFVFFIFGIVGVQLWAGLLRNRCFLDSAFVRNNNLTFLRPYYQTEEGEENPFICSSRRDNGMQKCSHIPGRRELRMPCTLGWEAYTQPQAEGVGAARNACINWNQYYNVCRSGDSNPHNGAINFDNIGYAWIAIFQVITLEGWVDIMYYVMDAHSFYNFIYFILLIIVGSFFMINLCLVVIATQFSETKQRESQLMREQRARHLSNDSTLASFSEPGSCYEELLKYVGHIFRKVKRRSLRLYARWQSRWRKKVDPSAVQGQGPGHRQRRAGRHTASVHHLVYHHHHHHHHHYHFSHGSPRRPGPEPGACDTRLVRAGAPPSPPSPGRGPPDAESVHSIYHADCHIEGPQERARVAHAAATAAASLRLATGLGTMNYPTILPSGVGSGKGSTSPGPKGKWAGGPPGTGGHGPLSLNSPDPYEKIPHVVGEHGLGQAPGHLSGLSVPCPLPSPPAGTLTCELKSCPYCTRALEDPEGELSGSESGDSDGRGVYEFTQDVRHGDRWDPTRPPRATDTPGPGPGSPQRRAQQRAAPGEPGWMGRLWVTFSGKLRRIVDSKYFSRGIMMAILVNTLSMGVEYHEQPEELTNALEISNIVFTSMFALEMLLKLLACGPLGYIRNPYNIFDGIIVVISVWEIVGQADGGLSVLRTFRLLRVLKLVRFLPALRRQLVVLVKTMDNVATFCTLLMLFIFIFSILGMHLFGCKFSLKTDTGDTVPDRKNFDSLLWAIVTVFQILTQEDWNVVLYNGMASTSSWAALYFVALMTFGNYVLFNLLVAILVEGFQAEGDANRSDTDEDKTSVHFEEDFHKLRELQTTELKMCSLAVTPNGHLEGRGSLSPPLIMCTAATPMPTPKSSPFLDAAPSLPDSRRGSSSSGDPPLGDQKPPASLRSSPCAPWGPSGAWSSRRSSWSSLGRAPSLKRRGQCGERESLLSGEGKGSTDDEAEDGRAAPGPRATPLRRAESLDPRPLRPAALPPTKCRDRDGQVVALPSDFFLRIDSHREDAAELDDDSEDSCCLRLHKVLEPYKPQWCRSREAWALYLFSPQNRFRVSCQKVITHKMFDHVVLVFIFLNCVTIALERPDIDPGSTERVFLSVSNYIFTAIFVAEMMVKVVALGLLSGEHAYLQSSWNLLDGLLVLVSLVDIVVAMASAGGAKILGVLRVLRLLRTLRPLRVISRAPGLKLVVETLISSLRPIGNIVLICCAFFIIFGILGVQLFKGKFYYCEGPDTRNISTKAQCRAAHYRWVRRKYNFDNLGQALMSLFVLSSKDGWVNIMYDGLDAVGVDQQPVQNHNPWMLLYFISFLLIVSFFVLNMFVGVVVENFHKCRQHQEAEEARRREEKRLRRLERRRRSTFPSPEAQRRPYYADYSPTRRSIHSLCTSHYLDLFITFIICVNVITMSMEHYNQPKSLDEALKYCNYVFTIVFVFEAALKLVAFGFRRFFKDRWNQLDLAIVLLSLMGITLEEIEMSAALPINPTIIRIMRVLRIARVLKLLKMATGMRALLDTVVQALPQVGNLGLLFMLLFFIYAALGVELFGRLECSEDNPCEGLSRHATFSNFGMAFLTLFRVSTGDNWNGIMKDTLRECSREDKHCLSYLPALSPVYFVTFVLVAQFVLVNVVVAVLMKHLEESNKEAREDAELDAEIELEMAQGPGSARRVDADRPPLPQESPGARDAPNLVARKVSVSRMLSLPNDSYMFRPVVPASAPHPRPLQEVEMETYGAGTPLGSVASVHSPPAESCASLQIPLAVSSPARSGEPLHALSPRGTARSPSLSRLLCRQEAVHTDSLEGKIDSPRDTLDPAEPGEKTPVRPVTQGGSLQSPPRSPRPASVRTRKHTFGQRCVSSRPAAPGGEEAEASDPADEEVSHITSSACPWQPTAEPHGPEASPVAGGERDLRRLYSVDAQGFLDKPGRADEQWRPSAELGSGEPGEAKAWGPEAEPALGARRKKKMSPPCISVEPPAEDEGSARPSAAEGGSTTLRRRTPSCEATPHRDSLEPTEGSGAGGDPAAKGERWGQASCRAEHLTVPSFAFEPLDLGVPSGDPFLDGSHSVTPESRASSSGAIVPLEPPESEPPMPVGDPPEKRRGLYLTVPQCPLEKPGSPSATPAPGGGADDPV

[25] = target: T7, Voltage-dependent T-type calcium channel subunit alpha-1H; assay type: functional
[26] = viability of uninfected HEp-2 cells – cell-based, HTS, cytotoxicity control for RSV inhibitor project, dose response (AID 2410); assay type: functional; details: human respiratory syncytial virus
[27] = target: Cystic fibrosis transmembrane conductance regulator/Golgi-associated PDZ and coiled-coil motif-containing protein (Homo sapiens, UniProt P13569+Q9HD26); test: potency against CAL PDZ-peptide interaction – biochemical, fluorescence polarization, Cerulean-tagged CAL PDZ, cherry-picks, dose response (AID 504773)
Sequence of Cystic fibrosis transmembrane conductance regulator/Golgi-associated PDZ and coiled-coil motif-containing protein (P13569 whole entry, other chains not shown): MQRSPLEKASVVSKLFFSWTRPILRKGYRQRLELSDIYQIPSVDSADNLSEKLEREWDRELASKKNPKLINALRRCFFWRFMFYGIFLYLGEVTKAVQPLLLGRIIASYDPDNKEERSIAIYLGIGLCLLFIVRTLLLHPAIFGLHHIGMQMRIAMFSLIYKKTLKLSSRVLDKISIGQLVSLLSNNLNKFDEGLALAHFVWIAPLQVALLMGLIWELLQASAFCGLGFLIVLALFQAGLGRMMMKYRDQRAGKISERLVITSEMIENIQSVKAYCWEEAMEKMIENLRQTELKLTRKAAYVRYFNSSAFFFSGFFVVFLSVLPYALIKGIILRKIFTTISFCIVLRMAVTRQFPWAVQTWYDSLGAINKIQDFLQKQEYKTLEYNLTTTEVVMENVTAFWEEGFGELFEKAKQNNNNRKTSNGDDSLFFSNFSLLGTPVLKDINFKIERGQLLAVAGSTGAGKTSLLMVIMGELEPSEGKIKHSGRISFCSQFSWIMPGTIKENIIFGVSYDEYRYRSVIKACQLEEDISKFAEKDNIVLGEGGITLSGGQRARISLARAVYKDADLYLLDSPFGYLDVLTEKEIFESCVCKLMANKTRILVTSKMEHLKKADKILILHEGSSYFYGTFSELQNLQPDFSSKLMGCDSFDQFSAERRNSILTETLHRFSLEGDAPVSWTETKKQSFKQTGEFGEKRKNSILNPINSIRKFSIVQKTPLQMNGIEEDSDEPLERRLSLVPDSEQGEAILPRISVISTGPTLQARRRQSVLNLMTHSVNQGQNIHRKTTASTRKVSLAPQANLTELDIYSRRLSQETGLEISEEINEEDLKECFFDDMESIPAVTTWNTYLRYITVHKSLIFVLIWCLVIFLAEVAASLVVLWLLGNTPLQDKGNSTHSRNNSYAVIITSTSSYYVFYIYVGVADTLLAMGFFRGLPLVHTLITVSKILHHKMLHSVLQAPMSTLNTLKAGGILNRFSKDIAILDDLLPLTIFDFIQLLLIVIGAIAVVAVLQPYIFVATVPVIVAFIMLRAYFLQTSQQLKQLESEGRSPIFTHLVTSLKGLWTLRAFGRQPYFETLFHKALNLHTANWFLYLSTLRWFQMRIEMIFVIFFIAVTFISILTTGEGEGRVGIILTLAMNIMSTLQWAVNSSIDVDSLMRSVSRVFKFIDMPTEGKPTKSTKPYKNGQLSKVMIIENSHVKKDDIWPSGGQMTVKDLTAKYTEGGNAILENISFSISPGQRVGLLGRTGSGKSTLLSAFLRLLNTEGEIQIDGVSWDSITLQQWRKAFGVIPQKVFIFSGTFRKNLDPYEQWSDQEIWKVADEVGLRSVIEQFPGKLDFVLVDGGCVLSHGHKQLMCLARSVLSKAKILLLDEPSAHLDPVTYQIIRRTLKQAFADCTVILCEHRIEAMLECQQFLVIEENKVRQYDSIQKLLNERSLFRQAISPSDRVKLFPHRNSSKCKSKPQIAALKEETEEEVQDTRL

Sequence of Wee1-like protein kinase (P30291 whole entry): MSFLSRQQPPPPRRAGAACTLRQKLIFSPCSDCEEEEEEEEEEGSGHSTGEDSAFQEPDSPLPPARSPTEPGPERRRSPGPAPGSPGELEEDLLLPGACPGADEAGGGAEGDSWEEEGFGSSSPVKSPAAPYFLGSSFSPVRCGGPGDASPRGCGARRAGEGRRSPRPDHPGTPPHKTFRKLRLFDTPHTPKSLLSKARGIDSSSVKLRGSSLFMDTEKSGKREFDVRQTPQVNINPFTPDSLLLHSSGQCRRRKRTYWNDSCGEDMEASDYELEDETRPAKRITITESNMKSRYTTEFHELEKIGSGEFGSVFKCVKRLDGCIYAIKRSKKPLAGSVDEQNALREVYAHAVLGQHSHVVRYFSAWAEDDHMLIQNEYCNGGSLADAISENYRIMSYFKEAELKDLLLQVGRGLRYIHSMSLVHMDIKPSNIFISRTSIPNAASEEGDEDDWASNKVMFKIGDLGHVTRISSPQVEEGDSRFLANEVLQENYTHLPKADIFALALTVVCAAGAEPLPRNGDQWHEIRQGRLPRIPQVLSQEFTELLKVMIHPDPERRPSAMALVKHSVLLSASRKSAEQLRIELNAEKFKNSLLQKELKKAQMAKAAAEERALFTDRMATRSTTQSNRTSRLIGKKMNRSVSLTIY

COc1ccc(C)cc1NC(=O)CCCOc1cc(=O)n(C)c2ccccc12
EC50 [1]: > 49.7 µM (inactive) | EC50 [2]: > 49.7 µM (inactive)

O=C(/C=C/c1cccc(Cl)c1)c1nc2ccccc2[nH]1
IC50 [3]: > 25 µM (active) | EC50 [4]: 2.16 µM (active) | EC50 [5]: 2.34 µM (active) | IC50 [6]: 7.7 µM (active) | EC50 [7]: 2.2 µM (active) | EC50 [8]: 67 µM (inconclusive) | CC50 [9]: 12.1 µM (active) | IC50 [10]: 5.08 µM (active) | EC50 [11]: 25.8 µM (inactive)

COc1ccc(S(=O)(=O)Nc2c(C(=O)O)[nH]c3ccc(OC)cc23)c(OC)c1
AC50 [12]: 20.6 µM (active)

O=C1C(SCCO)=C(SCCO)C(=O)c2ccccc21
IC50 [13]: 26.6 µM (active) | IC50 [14]: 12.7 µM (active) | CC50 [15]: 24.5 µM (active) | CC50 [16]: 30.1 µM (active) | AC50 [17]: 31.6 µM (inconclusive) | IC50 [18]: 3.15 µM (active) | IC50 [19]: 32.5 µM (active) | IC50 [20]: 55.5 µM (inactive) | IC50 [21]: 12.1 µM (inactive) | IC50 [22]: 12.8 µM (active) | IC50 [23]: 0.479 µM (active)

O=C(CN1CCC(n2nnc3cc(F)ccc32)CC1)Nc1ccc2c(c1)CCC2
EC50 [24]: 6.67 µM (active) | EC50 [25]: 5.76 µM (active) | CC50 [26]: > 50 µM (active)

NS(=O)(=O)c1ccc(N2N=C(c3ccccc3)CC2c2ccccc2)cc1 (configuration not stated)
AC50 [27]: 66.6 µM (active)
